Measurements: PubChem BioAssay (NCI)
Where “and” joins values, the source holds several entries; their conditions need not be identical. Identical values can stand only once.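 These data come from cells grown in 96-well plates and exposed to compound for 48 hours at five concentrations. GI50: concentration for 50% inhibition of growth. TGI: concentration producing complete growth inhibition.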

Each molecule was assayed on SN12C renal (assay: NCI anticancer screen, dose series, 48 h).
In the case of `O=C(O)c1cc(C(=O)O)cc(N2C(=O)c3ccccc3C2=O)c1`, the TGI is reported as > 100 µM.
In the case of `CN(CC(=O)O)S(=O)(=O)c1ccc2ccccc2c1`, the TGI is reported as > 100 µM.
`CCN(CC)CC(C(=O)Nc1c(C)cccc1C)/C(C)=N\NC(=O)C[N+](C)(C)C` (centres undefined) was tested, and the TGI was > 100 µM.
`CC1=C(C(=O)Nc2ccccc2C)C(c2ccco2)C(C(=O)Nc2ccccc2C)=C(C)N1C` was tested, and the TGI was > 100 µM.
For `CC(=O)OC(C)C(=O)C1c2cccc(O)c2C(=O)c2c(O)cc(C)cc21` (centres undefined), the TGI was 2.24 µM.
`O=[S@@]1Nc2ccc(Br)cc2S1` was tested, and the TGI was > 100 µM.
For `O=C1NC2(CCCCC2)C2CCCCC(O)C12` (centres undefined), the TGI was > 100 µM.
`COc1ccc(-n2/c(=N/C(=S)N(C)C)ss/c2=N\C(=S)N(C)C)cc1` was tested, and the TGI was > 100 µM.
`CC1=C(C(=O)Nc2ccc(F)c(Cl)c2)C(c2ccc(Cl)cc2)NC(=O)N1` (centres undefined) showed a GI50 of 17.8 µM and a TGI of 32.2 µM.
With `Oc1ccc(Cl)cc1-c1cc(-c2ccccc2Cl)[nH]n1` the GI50 was 6.32 µM and the TGI was > 100 µM.
`CCOC(=O)C(Sc1ccccc1)c1c(OC)cc(=O)oc1/C=[N+](/[O-])c1ccc(N(C)C)cc1` (centres undefined) showed a TGI of 32 µM.
For `CNC(=O)c1cc(Oc2ccc3nc(NC(=O)Nc4ccc(Cl)c(C(F)(F)F)c4)sc3c2)ccn1`, the GI50 was 2.44 µM and the TGI was > 100 µM.
`O=C(O)C(Cc1ccccc1)N1C(=O)N/C(=C\c2ccc(F)cc2)C1=O` (centres undefined) was tested, and the TGI was > 100 µM.
With `COc1ccccc1NC(=O)CC(=O)n1nc(C)c(N=Nc2ccccc2C(=O)O)c1C` the TGI was > 100 µM.
With `CC(=O)N1[C@H](C(=O)O)CS[C@H]1c1ccncc1` the TGI was > 100 µM.
For `CC(=O)OC1COC(n2c(=S)n(-c3ccc(C)cc3)c(=O)c3ccccc32)C(OC(C)=O)C1OC(C)=O` (centres undefined), the TGI was > 100 µM.
For `COc1cccc(NC(=O)CC(=O)n2nc(C)c(N=Nc3ccccc3)c2C)c1`, the TGI was > 100 µM.
Work on `CC(=O)[O][Hg][c]1c(N)c(C)cc(C)c1F` yielded a GI50 of 1.36 µM and a TGI of 2.72 µM.
In the case of `CSc1ccccc1C#C/C=C\C#Cc1ccccc1N1CCCC1=O`, the GI50 is reported as > 26.2 µM and the TGI is reported as > 50 µM.
With `O=C(O)CCSC(=O)Nc1cccc(F)c1` the TGI was > 100 µM.

The molecules below were run on SK-MEL-5 melanoma (assay: NCI anticancer screen, dose series, 48 h).
Molecule `NC(CSC(c1ccccc1)(c1ccccc1)c1ccc2c(c1)OCO2)C(=O)O` (centres undefined) has a GI50 of 0.365 µM and a TGI of 5.01 µM.
With `C=CCc1cc(OC)c2c(c1)C(O)CC(c1ccc(OC)c(OC)c1)O2` (centres undefined) the TGI was > 100 µM.
With `O=C(NCCNc1nccc(-c2c(-c3cccc(O)c3)nc3sccn23)n1)c1ccccc1O` the GI50 was 1.47 µM and the TGI was 5.21 µM.
`CCCCCCCC(=O)SCC/C=C/[C@@H]1CC(=O)NCc2cccc(n2)C2=N[C@@](C)(CS2)C(=O)N[C@@H](C(C)C)C(=O)N1` gave a GI50 of 0.924 µM and a TGI of 8.35 µM.
For `C[C@@H](CS(C)(=O)=O)Nc1ncc2cc(Oc3ccc(F)cc3F)c(=O)n(C)c2n1`, the GI50 was > 25 µM and the TGI was > 25 µM.
In the case of `CC(C)=CCCc1c(C)ccc2c1C(=O)C(=O)C(C(C)C)=C2`, the TGI is reported as > 22 µM.
With `N#CC(C#N)=c1ccc(=C2NCC3CCCN23)cc1` (centres undefined) the TGI was > 100 µM.
In the case of `Cc1cnc(NC(=O)C(Cc2ccccc2)NC(=O)c2ccccc2)s1` (centres undefined), the GI50 is reported as 1.69 µM and the TGI is reported as 3.85 µM.
For `CCOC(=O)COc1cccc2c1C(=O)CCO2`, the TGI was > 100 µM.
`CSc1ccc(/C=C2\CN(C)C/C(=C\c3ccc(SC)cc3)C2=O)cc1` was tested, and the TGI was > 100 µM.
For `O=[N+]([O-])c1cnc(Sc2ccncn2)s1`, the GI50 was 4.86 µM and the TGI was 14.6 µM.
With `COC(=O)[C@@]12C3=NO[C@]1(C(=O)OC)C(O[Si](C)(C)C(C)(C)C)[C@H]1OC(C)(C)O[C@H]1[C@@H]2C(OCc1ccccc1)CC3` (some centres undefined) the TGI was > 100 µM.
In the case of `O=C(O)c1cc(C(=O)O)cc(N2C(=O)c3ccccc3C2=O)c1`, the TGI is reported as > 100 µM.
For `COc1c2ccoc2c(/C=C/C=O)c2oc(-c3ccccc3)cc(=O)c12`, the GI50 was 3.04 µM and the TGI was 12.3 µM.
In the case of `CN(CC(=O)O)S(=O)(=O)c1ccc2ccccc2c1`, the TGI is reported as > 100 µM.
For `CCN(CC)CC(C(=O)Nc1c(C)cccc1C)/C(C)=N\NC(=O)C[N+](C)(C)C` (centres undefined), the TGI was > 100 µM.
In the case of `CC1=C(C(=O)Nc2ccccc2C)C(c2ccco2)C(C(=O)Nc2ccccc2C)=C(C)N1C`, the TGI is reported as > 100 µM.
`CC(=O)OC(C)C(=O)C1c2cccc(O)c2C(=O)c2c(O)cc(C)cc21` (centres undefined) gave a TGI of 1.31 µM.
For `O=[S@@]1Nc2ccc(Br)cc2S1`, the TGI was > 100 µM.
For `COc1ccc2c(c1)C1(C=N2)CCN(C(C)=O)CC1`, the TGI was > 100 µM.
For `CC1=C(C(=O)Nc2ccc(F)c(Cl)c2)C(c2ccc(Cl)cc2)NC(=O)N1` (centres undefined), the GI50 was 15.5 µM and the TGI was 30.4 µM.
For `Oc1ccc(Cl)cc1-c1cc(-c2ccccc2Cl)[nH]n1`, the GI50 was 5.66 µM and the TGI was > 100 µM.
Molecule `CCOC(=O)C(Sc1ccccc1)c1c(OC)cc(=O)oc1/C=[N+](/[O-])c1ccc(N(C)C)cc1` (centres undefined) has a TGI of 44.9 µM.
`O=C(O)C(Cc1ccccc1)N1C(=O)N/C(=C\c2ccc(F)cc2)C1=O` (centres undefined) was tested, and the TGI was > 100 µM.
With `COc1ccccc1NC(=O)CC(=O)n1nc(C)c(N=Nc2ccccc2C(=O)O)c1C` the TGI was > 100 µM.
`CC(=O)N1[C@H](C(=O)O)CS[C@H]1c1ccncc1` was tested, and the TGI was > 100 µM.
`CC(=O)OC1COC(n2c(=S)n(-c3ccc(C)cc3)c(=O)c3ccccc32)C(OC(C)=O)C1OC(C)=O` (centres undefined) was tested, and the TGI was > 100 µM.
With `COc1cccc(NC(=O)CC(=O)n2nc(C)c(N=Nc3ccccc3)c2C)c1` the TGI was > 100 µM.
Work on `CC(=O)[O][Hg][c]1c(N)c(C)cc(C)c1F` yielded a GI50 of 1.48 µM and a TGI of 2.88 µM.
In the case of `CSc1ccccc1C#C/C=C\C#Cc1ccccc1N1CCCC1=O`, the TGI is reported as > 18.3 µM.
For `O=C(CCl)N1c2ccccc2Oc2ccc3ccccc3c21`, the GI50 was 1.59 µM and the TGI was 2.98 µM.
For `CCNC1C2(CCCCC2)NC(=O)C12CCCCC2` (centres undefined), the TGI was > 100 µM.

What follows are molecules tested on OVCAR-3 ovarian (assay: NCI anticancer screen, dose series, 48 h).
`NC(CSC(c1ccccc1)(c1ccccc1)c1ccc2c(c1)OCO2)C(=O)O` (centres undefined) showed a GI50 of 0.512 µM and a TGI of 16.4 µM.
For `C=CCc1cc(OC)c2c(c1)C(O)CC(c1ccc(OC)c(OC)c1)O2` (centres undefined), the TGI was > 100 µM.
Molecule `O=C(NCCNc1nccc(-c2c(-c3cccc(O)c3)nc3sccn23)n1)c1ccccc1O` has a GI50 of 5.57 µM and a TGI of 47.8 µM.
`CCCCCCCC(=O)SCC/C=C/[C@@H]1CC(=O)NCc2cccc(n2)C2=N[C@@](C)(CS2)C(=O)N[C@@H](C(C)C)C(=O)N1` gave a GI50 of 0.402 µM and a TGI of 9.27 µM.
For `C[C@@H](CS(C)(=O)=O)Nc1ncc2cc(Oc3ccc(F)cc3F)c(=O)n(C)c2n1`, the GI50 was > 25 µM and the TGI was > 25 µM.
`CC(C)=CCCc1c(C)ccc2c1C(=O)C(=O)C(C(C)C)=C2` gave a TGI of 7.36 µM.
For `COC(=O)[C@@H](C)C[C@H](Cc1ccc(F)cc1)NC(=O)c1csc([C@@H](C[C@H](C(C)C)N(C)C(=O)[C@@H](NC(=O)[C@H]2CCCCN2C)C(C)C)OC(C)=O)n1`, the TGI was 0.00216 µM and 0.012 µM.
`Cc1cnc(NC(=O)C(Cc2ccccc2)NC(=O)c2ccccc2)s1` (centres undefined) gave a GI50 of 11.3 µM and a TGI of 25.8 µM.
In the case of `CCOC(=O)COc1cccc2c1C(=O)CCO2`, the TGI is reported as > 100 µM.
Work on `CSc1ccc(/C=C2\CN(C)C/C(=C\c3ccc(SC)cc3)C2=O)cc1` yielded a TGI of 56 µM.
Molecule `O=[N+]([O-])c1cnc(Sc2ccncn2)s1` has a GI50 of 1.74 µM and a TGI of 3.16 µM.
`COC(=O)[C@@]12C3=NO[C@]1(C(=O)OC)C(O[Si](C)(C)C(C)(C)C)[C@H]1OC(C)(C)O[C@H]1[C@@H]2C(OCc1ccccc1)CC3` (some centres undefined) was tested, and the TGI was > 100 µM.
`O=C(O)c1cc(C(=O)O)cc(N2C(=O)c3ccccc3C2=O)c1` was tested, and the TGI was > 100 µM.
Work on `COc1c2ccoc2c(/C=C/C=O)c2oc(-c3ccccc3)cc(=O)c12` yielded a GI50 of 5.19 µM and a TGI of 21.7 µM.
With `CN(CC(=O)O)S(=O)(=O)c1ccc2ccccc2c1` the TGI was > 100 µM.
`CCN(CC)CC(C(=O)Nc1c(C)cccc1C)/C(C)=N\NC(=O)C[N+](C)(C)C` (centres undefined) was tested, and the TGI was > 100 µM.
With `CC1=C(C(=O)Nc2ccccc2C)C(c2ccco2)C(C(=O)Nc2ccccc2C)=C(C)N1C` the TGI was > 100 µM.
With `CC(=O)OC(C)C(=O)C1c2cccc(O)c2C(=O)c2c(O)cc(C)cc21` (centres undefined) the TGI was 1.43 µM.
`O=[S@@]1Nc2ccc(Br)cc2S1` was tested, and the TGI was > 100 µM.
`COc1ccc2c(c1)C1(C=N2)CCN(C(C)=O)CC1` was tested, and the TGI was > 100 µM.
`O=C1NC2(CCCCC2)C2CCCCC(O)C12` (centres undefined) was tested, and the TGI was > 100 µM.
In the case of `COc1ccc(-n2/c(=N/C(=S)N(C)C)ss/c2=N\C(=S)N(C)C)cc1`, the TGI is reported as 53.1 µM.
In the case of `CC1=C(C(=O)Nc2ccc(F)c(Cl)c2)C(c2ccc(Cl)cc2)NC(=O)N1` (centres undefined), the GI50 is reported as 17.8 µM and the TGI is reported as 38.4 µM.
For `Oc1ccc(Cl)cc1-c1cc(-c2ccccc2Cl)[nH]n1`, the GI50 was 2.37 µM and the TGI was > 100 µM.
Work on `CCOC(=O)C(Sc1ccccc1)c1c(OC)cc(=O)oc1/C=[N+](/[O-])c1ccc(N(C)C)cc1` (centres undefined) yielded a TGI of 26 µM.
With `COc1ccccc1NC(=O)CC(=O)n1nc(C)c(N=Nc2ccccc2C(=O)O)c1C` the TGI was > 100 µM.
With `CC(=O)N1[C@H](C(=O)O)CS[C@H]1c1ccncc1` the TGI was > 100 µM.
For `CC(=O)OC1COC(n2c(=S)n(-c3ccc(C)cc3)c(=O)c3ccccc32)C(OC(C)=O)C1OC(C)=O` (centres undefined), the TGI was > 100 µM.
In the case of `COc1cccc(NC(=O)CC(=O)n2nc(C)c(N=Nc3ccccc3)c2C)c1`, the TGI is reported as > 100 µM.
For `CC(=O)[O][Hg][c]1c(N)c(C)cc(C)c1F`, the GI50 was 1.01 µM and the TGI was 2.28 µM.
For `CSc1ccccc1C#C/C=C\C#Cc1ccccc1N1CCCC1=O`, the TGI was > 14 µM.
